Data as given in patent US12174198B2, “Methods of characterizing condensate-associated characteristics of compounds and uses thereof” (Dewpoint Therapeutics, Inc., priority 2019, dated 2024).

How the values were obtained:
Type in all cases: physicochemical
[1] = biological target: T1, FUS-SNAP condensates (Homo sapiens, UniProt P35637); assay: Fluorescence imaging of dye partitioning in FUS-SNAP condensates (I-in, I-out); details: for Ratio of intensity inside:outside FUS-SNAP Condensates Day 1 / Ratio of intensity inside:outside FUS-SNAP Condensates Day 2 / Ratio of intensity inside:outside FUS-SNAP Condensates Average: I-in:I-out; for Ratio of intensity inside:outside FUS-SNAP Condensates Day 1 / Ratio of intensity inside:outside FUS-SNAP Condensates Day 2 / Ratio of intensity inside:outside FUS-SNAP Condensates Average / Intensity Inside with Dye Average / Intensity Inside with Dye 1 / Intensity Inside with Dye 2 / Intensity Inside with Dye 3 / Intensity Outside with Dye Average / Intensity Outside with Dye 1 / Intensity Outside with Dye 2 / Intensity Outside with Dye 3: 10 μM dye; for Ratio of intensity inside:outside FUS-SNAP Condensates Average: average of two days; for Intensity Inside with Dye Average / Intensity Inside with Dye 1 / Intensity Inside with Dye 2 / Intensity Inside with Dye 3 / Intensity Inside Dye-No Dye: inside FUS-SNAP condensate; for Intensity Inside with Dye Average / Intensity Inside with Dye 1 / Intensity Inside with Dye 2 / Intensity Inside with Dye 3 / Intensity Outside with Dye Average / Intensity Outside with Dye 1 / Intensity Outside with Dye 2 / Intensity Outside with Dye 3: 5 μM protein; for Intensity Inside with Dye Average / Intensity Outside with Dye Average: average of three images; for Intensity Inside with Dye Average / Intensity Inside with Dye 1 / Intensity Inside with Dye 2 / Intensity Inside with Dye 3 / Intensity Inside Dye-No Dye / Intensity Outside with Dye Average / Intensity Outside with Dye 1 / Intensity Outside with Dye 2 / Intensity Outside with Dye 3 / Intensity Outside (Dye-No Dye): one day of experiments; for Intensity Inside with Dye 1 / Intensity Outside with Dye 1: image 1; for Intensity Inside with Dye 2 / Intensity Outside with Dye 2: image 2; for Intensity Inside with Dye 3 / Intensity Outside with Dye 3: image 3; for Intensity Inside Dye-No Dye / Intensity Outside (Dye-No Dye): background corrected; for Intensity Outside with Dye Average / Intensity Outside with Dye 1 / Intensity Outside with Dye 2 / Intensity Outside with Dye 3 / Intensity Outside (Dye-No Dye): outside FUS-SNAP condensate
T1 sequence (P35637 1-526): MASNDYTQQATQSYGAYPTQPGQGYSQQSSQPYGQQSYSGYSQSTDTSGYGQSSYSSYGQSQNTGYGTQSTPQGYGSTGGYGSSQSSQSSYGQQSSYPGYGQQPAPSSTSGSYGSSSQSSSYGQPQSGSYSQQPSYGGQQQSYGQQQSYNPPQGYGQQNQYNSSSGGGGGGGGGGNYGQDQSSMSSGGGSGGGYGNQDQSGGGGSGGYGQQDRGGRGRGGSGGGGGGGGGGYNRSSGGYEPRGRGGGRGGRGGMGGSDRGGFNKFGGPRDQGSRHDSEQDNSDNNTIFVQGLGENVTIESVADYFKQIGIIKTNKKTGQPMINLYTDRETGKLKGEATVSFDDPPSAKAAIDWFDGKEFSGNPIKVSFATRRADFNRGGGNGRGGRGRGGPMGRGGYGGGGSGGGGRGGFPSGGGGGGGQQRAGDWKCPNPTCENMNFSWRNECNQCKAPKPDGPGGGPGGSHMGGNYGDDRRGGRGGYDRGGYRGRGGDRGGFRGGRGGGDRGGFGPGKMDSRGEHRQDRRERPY
In short: (§1)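 Partitioning read by spinning-disk confocal imaging (60× oil, dye-specific exposure 1-1000 ms) of condensates formed from 5 μM protein (FUS-SNAP or untagged PGL-3) plus 10 μM dye, 75 mM KCl, 1% DMSO, pH 7.25. Background-subtracted intensities inside and beside one condensate per image, three images averaged.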

[2] = biological target: T2, PGL-3 condensates (Caenorhabditis elegans, UniProt G5EBV6); assay: Fluorescence imaging of dye partitioning in PGL-3 condensates (I-in, I-out); details: for Ratio of intensity inside:outside PGL-3 Condensates Day 1 / Ratio of intensity inside:outside PGL-3 Condensates Day 2 / Ratio of intensity inside:outside PGL-3 Condensates Average: I-in:I-out; for Ratio of intensity inside:outside PGL-3 Condensates Day 1 / Ratio of intensity inside:outside PGL-3 Condensates Day 2 / Ratio of intensity inside:outside PGL-3 Condensates Average / Intensity Inside with Dye Average / Intensity Inside with Dye 1 / Intensity Inside with Dye 2 / Intensity Inside with Dye 3 / Intensity Outside with Dye Average / Intensity Outside with Dye 1 / Intensity Outside with Dye 2 / Intensity Outside with Dye 3: 10 μM dye; for Ratio of intensity inside:outside PGL-3 Condensates Average: average of two days; for Intensity Inside with Dye Average / Intensity Inside with Dye 1 / Intensity Inside with Dye 2 / Intensity Inside with Dye 3 / Intensity Inside Dye-No Dye: inside PGL-3 condensate; for Intensity Inside with Dye Average / Intensity Inside with Dye 1 / Intensity Inside with Dye 2 / Intensity Inside with Dye 3 / Intensity Outside with Dye Average / Intensity Outside with Dye 1 / Intensity Outside with Dye 2 / Intensity Outside with Dye 3: 5 μM protein; for Intensity Inside with Dye Average / Intensity Outside with Dye Average: average of three images; for Intensity Inside with Dye Average / Intensity Inside with Dye 1 / Intensity Inside with Dye 2 / Intensity Inside with Dye 3 / Intensity Inside Dye-No Dye / Intensity Outside with Dye Average / Intensity Outside with Dye 1 / Intensity Outside with Dye 2 / Intensity Outside with Dye 3 / Intensity Outside (Dye-No Dye): one day of experiments; for Intensity Inside with Dye 1 / Intensity Outside with Dye 1: image 1; for Intensity Inside with Dye 2 / Intensity Outside with Dye 2: image 2; for Intensity Inside with Dye 3 / Intensity Outside with Dye 3: image 3; for Intensity Inside Dye-No Dye / Intensity Outside (Dye-No Dye): background corrected; for Intensity Outside with Dye Average / Intensity Outside with Dye 1 / Intensity Outside with Dye 2 / Intensity Outside with Dye 3 / Intensity Outside (Dye-No Dye): outside PGL-3 condensate
T2 sequence (G5EBV6 1-693): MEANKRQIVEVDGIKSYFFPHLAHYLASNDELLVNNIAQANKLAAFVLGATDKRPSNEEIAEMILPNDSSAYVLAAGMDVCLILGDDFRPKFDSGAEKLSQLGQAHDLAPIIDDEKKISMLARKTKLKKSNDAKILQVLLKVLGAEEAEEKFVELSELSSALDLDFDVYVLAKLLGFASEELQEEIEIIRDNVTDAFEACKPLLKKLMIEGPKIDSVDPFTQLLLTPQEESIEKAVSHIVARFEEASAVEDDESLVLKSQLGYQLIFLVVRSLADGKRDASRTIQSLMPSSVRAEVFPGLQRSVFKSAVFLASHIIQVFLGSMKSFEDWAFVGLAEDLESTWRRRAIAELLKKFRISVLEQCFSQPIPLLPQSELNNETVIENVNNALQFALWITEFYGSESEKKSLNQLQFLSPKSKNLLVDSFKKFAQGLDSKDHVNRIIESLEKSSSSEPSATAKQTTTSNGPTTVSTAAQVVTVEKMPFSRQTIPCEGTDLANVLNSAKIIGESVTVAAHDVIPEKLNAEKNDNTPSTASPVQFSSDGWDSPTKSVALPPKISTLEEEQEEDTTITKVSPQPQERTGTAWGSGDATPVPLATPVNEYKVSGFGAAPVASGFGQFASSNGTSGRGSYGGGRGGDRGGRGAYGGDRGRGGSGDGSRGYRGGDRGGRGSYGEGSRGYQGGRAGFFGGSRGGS
In short: as §1

[3] = system: FUS-SNAP condensates versus PGL-3 condensates; assay: Condensate preference: ratio of FUS-SNAP I-in:I-out to PGL-3 I-in:I-out; details: average FUS-SNAP I-in:I-out divided by average PGL-3 I-in:I-out
Experimental: The ratios of the average intensity measured in the target condensates and outside of the target condensates were calculated by dividing I-in by I-out, although dividing I-out by I-in could also have been used. The I-in:I-out ratios determined from the two different days of experiments were then averaged. The average I-in:I-out ratios for FUS-SNAP condensates are shown in FIG. 3 and the average I-in:I-out ratios for PGL-3 condensates are shown in FIG. 4. The standard deviation between the two experiments is represented by the error bars in FIG. 3 and FIG. 4.

| SMILES | Ratio of intensity inside:outside FUS-SNAP Condensates Day 1 [1] | Ratio of intensity inside:outside FUS-SNAP Condensates Day 2 [1] | Ratio of intensity inside:outside FUS-SNAP Condensates Average [1] | Intensity Inside with Dye Average [1] | Intensity Inside with Dye 1 [1] | Intensity Inside with Dye 2 [1] | Intensity Inside with Dye 3 [1] | Intensity Inside Dye-No Dye [1] | Intensity Outside with Dye Average [1] | Intensity Outside with Dye 1 [1] | Intensity Outside with Dye 2 [1] | Intensity Outside with Dye 3 [1] | Intensity Outside (Dye-No Dye) [1] | Ratio of intensity inside:outside PGL-3 Condensates Day 1 [2] | Ratio of intensity inside:outside PGL-3 Condensates Day 2 [2] | Ratio of intensity inside:outside PGL-3 Condensates Average [2] | Intensity Inside with Dye Average [2] | Intensity Inside with Dye 1 [2] | Intensity Inside with Dye 2 [2] | Intensity Inside with Dye 3 [2] | other results |
| --- | --- | --- | --- | --- | --- | --- | --- | --- | --- | --- | --- | --- | --- | --- | --- | --- | --- | --- | --- | --- | --- |
| CC(=O)c1cc2cc3c4c(c2oc1=O)CCCN4CCC3 [Dye 4, Coumarin 334] | 2.1 | 3.0 | 2.6 | 10851.1 | 10755.9 | 10738.6 | 11058.9 | 10353.6 | 5030.3 | 4894.0 | 5118.6 | 5078.2 | 4890.2 | 1.4 | 1.3 | 1.3 | 204.8 | 212.2 | 205.0 | 197.2 | Intensity Inside Dye-No Dye [2]: 84.0; Intensity Outside with Dye Average [2]: 179.0; Intensity Outside with Dye 1 [2]: 178.0; Intensity Outside with Dye 2 [2]: 179.6; Intensity Outside with Dye 3 [2]: 179.5; Intensity Outside (Dye-No Dye) [2]: 58.6; Ratio of FUS-SNAP:PGL-3 [3]: 1.9 |
| CC(=O)N[C@H]1[C@H](Oc2ccc3c(c2)Oc2cc(O)ccc2C32OC(=O)c3ccccc32)O[C@H](CO)[C@H](O)[C@@H]1O (stereo partly drawn) [Dye 5, Fluorescein mono-(N-acetyl-β-D-galactosaminide)] | 1.2 | 1.4 | 1.3 | 1896.7 | 2046.8 | 2005.1 | 1638.1 | 1399.1 | 1272.5 | 1319.4 | 1306.9 | 1191.0 | 1132.4 | 1.0 | 1.1 | 1.1 | 1834.5 | 1912.6 | 1794.0 | 1797.0 | Intensity Inside Dye-No Dye [2]: 1237.3; Intensity Outside with Dye Average [2]: 1392.9; Intensity Outside with Dye 1 [2]: 1439.0; Intensity Outside with Dye 2 [2]: 1386.2; Intensity Outside with Dye 3 [2]: 1353.5; Intensity Outside (Dye-No Dye) [2]: 1230.0; Ratio of FUS-SNAP:PGL-3 [3]: 1.3 |
